The values that follow come from publication PMC6009910, “Tertiary amine derivatives of chlorochalcone as acetylcholinesterase (AChE) and buthylcholinesterase (BuChE) inhibitors: the influence of chlorine, alkyl amine side chain and α,β-unsaturated ketone group” (Journal of Enzyme Inhibition and Medicinal Chemistry, 2016).

For series [1], the target named is T1, AChE (Rattus norvegicus, UniProt P37136).
T1 construct: The brain and serum of Sprague–Dawley rat was used as the resource of AChE and BuChE, respectively; from tissue; host or cells: Sprague-Dawley rat brain
In words: biochemical. The class given is biochemical. The conditions noted are these: for IC50: rat brain AChE, means ± SD of three experiments; for Selectivity for AChE, IC50 (BuChE)/IC50 (AChE): ratio IC50 (BuChE)/IC50 (AChE). The protocol: (§1) AChE/BuChE activity assays were conducted by Ellman method with light modification. The brain and serum of Sprague–Dawley rat was used as the resource of AChE and BuChE, respectively. Each compound was dissolved in Tween 80 and diluted with water to various concentrations immediately before use. The reaction mixture containing 40 µL AChE/BuChE, 100 µL acetylthiocholine iodide/S-Butyrylthiocholine iodide, 2.76 mL Na2HPO4/NaH2PO4 buffer (pH 8.0, 0.1 mol/L), and 100 µL different concentrations of test compounds were incubated at 30 °C for 25 min. Then the reaction was terminated via adding 100 µL 20% sodium dodecyl sulfate (SDS), then 100 µL 10 mmol/L 5, 5'-Dithiobis-(2-nitrobenzoic acid) (DTNB) was added to generate the yellow anion 5-thio-2-nitro-benzoic acid. The absorbance of each assay mixture was measured at 412 nm by UV spectroscopy. The IC50 values were calculated by Bliss method and expressed as mean ± SD of the replicates.

The target of series [2] is T2, BuChE (Rattus norvegicus, UniProt Q9JKC1).
T2 construct: The brain and serum of Sprague–Dawley rat was used as the resource of AChE and BuChE, respectively; from tissue; host or cells: Sprague-Dawley rat serum
As to the kind of experiment: BuChE inhibition assay (Ellman method). The class given is biochemical, Sprague–Dawley rat. The protocol:
as §1
For orientation: In Ellman's method for cholinesterases, released thiocholine reacts with DTNB.

Series [3] in a line: Log p measurement by shake flask method. The class given is physicochemical. The conditions noted are these: octanol / PBS (pH =7.4), triplicate. On the procedure: Log p, defined as the logarithm of octanol-water partition coefficient is an important parameter to evaluate the lipophilicify of compounds. It can be calculated by determining the concentration of compound in octanol phase and water phase until the partition equilibrium was completed. In present investigation, log p of compounds 4a∼4l was measured by the shake flask method with slight modification, and PBS (pH =7.4) was used as the water phase. The mobile phase was methanol: 0.1% triethylamine (TEA)/80:20 (v/v), at a flow rate of 1.0 mL.min^−1 through a C18 column ([…] ×4.6 mm, 5 µm) at 32 °C with detect wavelength 318 nm. Experiments were conducted in triplicate and log p values were calculated.

Series [4] deals with T1, AChE. In words: Kinetic studies of AChE inhibition (Lineweaver–Burk). The class given is biochemical. The protocol: as §1, with “replicates. Rivastigmine was used as the control drug.” for “replicates.”
Kinetic experiment was conducted by a reported method with some modifications. Compound 4l was added into the assay solution and pre-incubated with the enzyme at 30 °C, followed by the addition of 100-µL acetylthiocholine iodide including five concentrations. The assay solution contained 100 µL compound 4l, 100 µL DTNB, 2.76 mL 0.1 mol/L Na2HPO4/NaH2PO4 buffer (pH 8.0). Kinetic profile of AChE was determined by UV spectrophotometer at 412 nm. Additionally, the blank control experiment was conducted with the vehicle to replace compound 4l solution.

Structures are written as SMILES. Values joined by “and” are separate entries in the source; they are usually repeats but may differ in a detail not shown here. Equal values may be shown once. “Also recorded” adds a separate entry of the source. Where only a bound is given, the exact number is not on record here.

T1 sequence (P37136 32-614): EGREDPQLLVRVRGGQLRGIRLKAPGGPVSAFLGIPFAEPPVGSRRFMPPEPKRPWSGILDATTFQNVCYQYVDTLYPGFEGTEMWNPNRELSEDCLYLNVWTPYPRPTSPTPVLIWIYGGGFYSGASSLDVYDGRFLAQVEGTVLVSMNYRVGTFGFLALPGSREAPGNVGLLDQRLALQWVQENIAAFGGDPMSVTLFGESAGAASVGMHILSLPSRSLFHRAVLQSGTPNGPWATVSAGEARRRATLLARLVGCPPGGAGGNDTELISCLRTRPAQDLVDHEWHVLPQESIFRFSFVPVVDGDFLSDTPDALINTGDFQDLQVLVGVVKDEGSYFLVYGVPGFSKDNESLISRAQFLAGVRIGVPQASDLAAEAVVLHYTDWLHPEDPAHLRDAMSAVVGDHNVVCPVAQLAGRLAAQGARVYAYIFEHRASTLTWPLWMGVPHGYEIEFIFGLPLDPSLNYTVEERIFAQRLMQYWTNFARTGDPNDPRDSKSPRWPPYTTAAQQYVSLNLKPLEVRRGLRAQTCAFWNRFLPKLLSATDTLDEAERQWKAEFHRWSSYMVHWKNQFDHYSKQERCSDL
T2 sequence (Q9JKC1 24-597): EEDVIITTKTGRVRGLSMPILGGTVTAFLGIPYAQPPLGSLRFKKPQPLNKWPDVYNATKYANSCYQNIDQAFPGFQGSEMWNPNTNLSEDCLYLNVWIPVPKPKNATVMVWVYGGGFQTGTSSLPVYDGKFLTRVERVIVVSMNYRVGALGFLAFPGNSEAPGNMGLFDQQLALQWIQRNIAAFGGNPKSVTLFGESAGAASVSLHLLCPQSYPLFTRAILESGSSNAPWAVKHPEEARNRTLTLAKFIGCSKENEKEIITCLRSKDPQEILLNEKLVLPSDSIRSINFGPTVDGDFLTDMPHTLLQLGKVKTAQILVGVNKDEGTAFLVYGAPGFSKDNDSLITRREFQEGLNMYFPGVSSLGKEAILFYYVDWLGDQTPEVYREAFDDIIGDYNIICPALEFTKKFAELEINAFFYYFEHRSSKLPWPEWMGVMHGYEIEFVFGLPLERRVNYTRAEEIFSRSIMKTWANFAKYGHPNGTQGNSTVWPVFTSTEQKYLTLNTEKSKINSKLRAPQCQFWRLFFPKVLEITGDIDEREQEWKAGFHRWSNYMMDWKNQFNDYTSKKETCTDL

In general, IC50 refers to the point on the concentration scale where inhibition reaches its midpoint. Low readings indicate higher potency, high ones lower potency. For `CC(=O)N1N=C(c2ccc(OCCN3CCCCC3)cc2)CC1c1ccc(Cl)cc1` (stereo not shown) [Compound 5a, 1–(5-(4-Chlorophenyl)-3–(4-(2-(piperidin-1-yl)ethoxy)phenyl)-4,5-dihydro-1H-pyrazol-1-yl) ethan-1-one], in series [1], 5.94 ± 0.27 µM corresponded to half-maximal inhibition (IC50) and the “Selectivity for AChE, IC50 (BuChE)/IC50 (AChE)” value (“Selectivity for AChE, IC50” below) came to 16.4. In series [2], this compound registered a half-maximal inhibitory concentration (IC50) of 97.6 ± 3.78 µM.
The logP is the decadic logarithm of the partition coefficient of the neutral form, usually between octanol and water. Regarding `O=C(/C=C/c1ccccc1Cl)c1ccc(OCCN2CCCC2)cc1` [Compound 4j, (E)-3–(2-chlorophenyl)-1–(4-(2-(pyrrolidin-1-yl)ethoxy)phenyl)prop-2-en-1-one], in series [1], the midpoint of inhibition, the IC50, lay at 0.81 ± 0.03 µM and the “Selectivity for AChE, IC50” value stood at 39.6. The compound further registered an IC50 in series [2] of 32.1 ± 5.71 µM. In series [3], the logP was determined as 1.85.
For `CCN(CC)CCOc1ccc(C(=O)/C=C/c2cccc(Cl)c2)cc1` [Compound 4e, (E)-3–(3-chlorophenyl)-1–(4-(2-(diethylamino)ethoxy)phenyl)prop-2-en-1-one], in that order: 5.83 ± 0.42 µM, 13.8, 80.2 ± 7.18 µM and 1.62.
Consider `CC(=O)N1N=C(c2ccc(OCCN3CCCC3)cc2)CC1c1ccccc1Cl` (stereo not shown) [Compound 5b, 1–(5-(2-Chlorophenyl)-3–(4-(2-(pyrrolidin-1-yl)ethoxy)phenyl)-4,5-dihydro-1H-pyrazol-1-yl) ethan-1-one], for which the IC50 in series [1] worked out at 6.31 ± 0.16 µM; in series [2] it was 29.9 ± 1.25 µM. The “Selectivity for AChE, IC50” value in series [1] was found to be 4.74.
Consider `CCN(CC)CCOc1ccc(C(=O)/C=C/c2ccc(Cl)cc2)cc1` [Compound 4f, (E)-3–(4-chlorophenyl)-1–(4-(2-(diethylamino)ethoxy)phenyl)prop-2-en-1-one], for which the IC50 in series [1] is 3.78 ± 0.39 µM; in series [2], 101 ± 17.2 µM. For the same compound, the “Selectivity for AChE, IC50” value in series [1] came to 26.7. In series [3], this compound had a lipophilicity (logP) of 1.69.
The term Ki denotes a measure of affinity in units of concentration, obtained from inhibition or displacement. For the compound `O=C(/C=C/c1ccc(Cl)cc1)c1ccc(OCCN2CCCC2)cc1` [Compound 4l, (E)-3–(4-chlorophenyl)-1–(4-(2-(pyrrolidin-1-yl)ethoxy)phenyl)prop-2-en-1-one], the IC50 in series [1] amounted to 0.17 ± 0.06 µM; in series [2] it was 113 ± 18.2 µM. In series [1], the “Selectivity for AChE, IC50” value is 667 and 667.2. Also, the logP in series [3] stood at 1.83. Moreover, the “noncompetitive constant (Ki’)” value in series [4] (AChE, mixed-type inhibition) is 2.95 µM. For the same compound, the inhibition type entry in series [4] (Lineweaver–Burk analysis, Km increased and Vmax decreased with concentration) is given as “mixed-type inhibition; also recorded: mixed-type inhibitor”. For the same compound, the “Ki’” value in series [4] (Supplement Table 2) was found to be 2.95 µM. Moreover, the Vmax in series [4] (compound 4l at 0.22 µM) is reported as 0.0273 ΔAmin-1; in series [4] (compound 4l at 0.43 µM), 0.0263 ΔAmin-1; in series [4] (compound 4l at […]), 0.0230 ΔAmin-1. Moreover, the inhibition constant Ki in series [4] (read-out: competitive inhibition constant (Ki)) is 0.38 µM.
For the compound `O=C(/C=C/c1ccc(Cl)cc1)c1ccc(OCCN2CCCCC2)cc1` [Compound 4i, (E)-3–(4-chlorophenyl)-1–(4-(2-(piperidin-1-yl)ethoxy)phenyl)prop-2-en-1-one], in series [1], the IC50 is 0.91 ± 0.09 µM and the “Selectivity for AChE, IC50” value came to 125.5. For the same compound, the IC50 in series [2] came out at 114 ± 26.1 µM. In series [3], this compound displayed a log partition coefficient (logP) of 1.79.
As to `CCN(CC)CCOc1ccc(C(=O)/C=C/c2ccccc2Cl)cc1` [Compound 4d, (E)-3–(2-chlorophenyl)-1–(4-(2-(diethylamino)ethoxy)phenyl)prop-2-en-1-one], in series [1], the midpoint of inhibition, the IC50, lay at 5.42 ± 0.2 µM and the “Selectivity for AChE, IC50” value is listed as 11.8. Besides, the half-maximal inhibitory concentration (IC50) in series [2] was 63.8 ± 9.21 µM. Further, the logP in series [3] worked out at 1.63.
On the same counts, the results for `O=C(/C=C/c1cccc(Cl)c1)c1ccc(OCCN2CCCCC2)cc1` [Compound 4h, (E)-3–(3-chlorophenyl)-1–(4-(2-(piperidin-1-yl)ethoxy)phenyl)prop-2-en-1-one] are 1.31 ± 0.17 µM, 18.7, 24.5 ± 6.14 µM and 1.72.
For `O=C(/C=C/c1cccc(Cl)c1)c1ccc(OCCN2CCCC2)cc1` [Compound 4k, (E)-3–(3-chlorophenyl)-1–(4-(2-(pyrrolidin-1-yl)ethoxy)phenyl)prop-2-en-1-one], in that order: 0.28 ± 0.05 µM, 110.9, 31.1 ± 3.41 µM and 1.81.
Turning to `CC(=O)N1N=C(c2ccc(OCCN3CCCC3)cc2)CC1c1ccc(Cl)cc1` (stereo not shown) [Compound 5d, 1–(5-(4-Chlorophenyl)-3–(4-(2-(pyrrolidin-1-yl)ethoxy)phenyl)-4,5-dihydro-1H-pyrazol-1-yl) ethan-1-one], in series [1], the concentration for half-maximal inhibition (IC50) is 2.04 ± 0.26 µM and the “Selectivity for AChE, IC50” value worked out at 52.96. In series [2], this compound showed a half-maximal inhibitory concentration (IC50) of 108 ± 5.56 µM.
Regarding `CN(C)CCOc1ccc(C(=O)/C=C/c2ccc(Cl)cc2)cc1` [Compound 4c, (E)-3–(4-chlorophenyl)-1–(4-(2-(dimethylamino)ethoxy)phenyl)prop-2-en-1-one], in series [1], it took 1.55 ± 0.16 µM to reach half-maximal inhibition (IC50) and the “Selectivity for AChE, IC50” value is on record as 28.1. This compound also returned an IC50 in series [2] of 43.6 ± 6.94 µM. This compound had a logP in series [3] of 1.61.
As to `CN(C)CCOc1ccc(C(=O)/C=C/c2ccccc2Cl)cc1` [Compound 4a, (E)-3–(2-chlorophenyl)-1–(4-(2-(dimethylamino)ethoxy)phenyl)prop-2-en-1-one], in series [1], the midpoint of inhibition, the IC50, lay at 2.11 ± 0.38 µM and the “Selectivity for AChE, IC50” value is on record as 19.5. For the same compound, the half-maximal inhibitory concentration (IC50) in series [2] came to 41.1 ± 2.31 µM. Further, in series [3], the lipophilicity (logP) was 1.75.
On to `O=C(/C=C/c1cccc(Cl)c1)c1ccc(O)cc1` [Compound 3b, 4'-Hydroxy-3-chlorochalcone], for which the IC50 in series [1] and in series [2] was over 500 µM in each case.
With `CC(=O)N1N=C(c2ccc(OCCN3CCCC3)cc2)CC1c1cccc(Cl)c1` (stereo not shown) [Compound 5c, 1–(5-(3-Chlorophenyl)-3–(4-(2-(pyrrolidin-1-yl)ethoxy)phenyl)-4,5-dihydro-1H-pyrazol-1-yl)ethan-1-one], in series [1], the half-maximal inhibitory concentration (IC50) is 2.41 ± 0.34 µM and the “Selectivity for AChE, IC50” value was 11.5. For the same compound, the half-maximal inhibitory concentration (IC50) in series [2] worked out at 27.6 ± 2.58 µM.
`O=C(/C=C/c1ccc(Cl)cc1)c1ccc(O)cc1` [Compound 3c, 4'-Hydroxy-4-chlorochalcone]: the IC50 in series [1] and in series [2] was over 500 µM each time.
Regarding `O=C(/C=C/c1ccccc1Cl)c1ccc(OCCN2CCCCC2)cc1` [Compound 4g, (E)-3–(2-chlorophenyl)-1–(4-(2-(piperidin-1-yl)ethoxy)phenyl)prop-2-en-1-one], in series [1], the half-inhibitory concentration (IC50) turned out to be 1.8 ± 0.48 µM and the “Selectivity for AChE, IC50” value is listed as 19.8. The compound also yielded an IC50 in series [2] of 35.6 ± 7.31 µM. This compound showed a logP in series [3] of 1.75.
With `CN(C)CCOc1ccc(C(=O)/C=C/c2cccc(Cl)c2)cc1` [Compound 4b, (E)-3–(3-chlorophenyl)-1–(4-(2-(dimethylamino)ethoxy)phenyl)prop-2-en-1-one], the IC50 came out at 3.76 ± 0.26 µM in series [1] and 32.1 ± 7.16 µM in series [2]. Further, in series [1], the “Selectivity for AChE, IC50” value came to 8.5. The logP in series [3] was 1.83.
Regarding `O=C(/C=C/c1ccccc1Cl)c1ccc(O)cc1` [Compound 3a, 4'-Hydroxy-2-chlorochalcone], the half-maximal inhibitory concentration (IC50) in series [1] and in series [2] was over 500 µM throughout.
